Assays:
[1] = test system: K36 lymphoma; assay: secondary in vivo evaluation, K36 lymphoma at three dosage levels; design: species or system AKR mice
Description: (§1) The in vivo anti-tumor activities of the phosphino-gold(I) compounds were evaluated using a murine tumor model, K36 lymphoma (T-cell lymphoma), inoculated subcutaneously into the AKR inbred mice. K36 lymphoma is a transformed cell line which originated from the AKR mice infected with murine leukemic retrovirus. The K36 lymphoma cells are naturally tumorigenic in syngenic AKR mice and is non-immunogenic to the host mice. The in vivo tests were carried out according to the following protocol:
The mice were then randomly distributed into control and treatment groups with 5 mice/group.
Day 1-7: The desired dose of a test agent was dissolved in a minimum amount (<50 μL) of dimethylacetamide (DMA), followed by addition of Cremaphor_EL (polyethoxylated castor oil, <30 μL) with mixing. Saline was added to dilute the drug solution and the desired dose was delivered in a volume of 5×0.3 mL for one group of mice (5 mice per group). […] Formulation of a test agent was carried out just before injection into the animals.
(§2) Day 8-11: Tumor weights were estimated from two-dimensional measurement, following the formula:
(§3) Tumor weight (in mg)=(a×b^2)/2,
wherein a and b are tumor length and width (in mm), respectively. The usual T/C value was used to assess the in vivo anti-tumor activity. T refers to the total tumor weight of the treatment group (including zeros), whereas, C refers to the total tumor weight of the non-treatment control group (including zeros).
In addition, three dose levels of 0.67 decrements were used in the secondary in vivo evaluation studies of (Sp)-1 and (Rp)-1 against the K36 lymphoma. The purpose of testing at multiple dosage levels is to exclude agents with exceptionally steep dose-response curves, where only the most tolerated dose is active.

[2] = test system: advanced K36 lymphoma; assay: advanced K36 lymphoma model, treatment from Day 7; type: in vivo, AKR mice; conditions: for average ILS % (Increased Life Span): control average life span 21 days after tumour implantation; for anti-tumor activity against advanced K36 tumor model in words (FIG. 1): treatment from Day 7, i.p. twice a day; for MTTD in advanced K36 model: treatment from Day 7, up to 4 days
Description: On Day 0, AKR mice were injected with K36 lymphoma cells. On Day 7, mice were divided into control and treatment groups. Treatment groups were injected intraperitoneally with either cisplatin, (Sp)-1, or (Rp)-1. Control groups were […] treated with any of the above compounds. On each subsequent day, the 3 treatment groups were injected with the respective compounds twice a day. Tumor weights were estimated from two-dimensional measurements on each day.
The anti-tumor activities of (Sp)- and (Rp)-I were also assessed against advanced K36 lymphoma model. Also, the active positive control, cisplatin, was included in the evaluation.
The protocol design for this test was similar as described above except that drug administrations began on Day 7 (Day 0 is the date of implantation). At this stage, the tumor sizes on mice averaged around 9×8 mm and the estimated average tumor weight was about 300 mg. Due to the extremely fast growth of the K36 lymphoma (the double time is around 1 day), there was limited time (up to 4 days) to escalate the drug dosage to the most tolerated level, before the tumor became too big to give a positive response to any drug treatment.
The results are visualised in FIG. 1. […] They can markedly retard the tumor growth during the period of drug treatment and even after treatment. The average ILS % (Increased Life Span) of (Sp)-I and (Rp)-I was 48% and 31%, respectively (the average life span of the control group was 21 days after tumour implantation). Particularly, one mouse treated with (Sp)-I survived for 48 days after tumour implantation.

[3] = test system: K36 lymphoma (T-cell lymphoma); assay: in vivo anti-tumor activity, K36 lymphoma in AKR mice (primary screen); conditions: at MTTD, i.p. Day 1-7, tumor weights Day 8-11
Description: as §1
Day 0: K36 lymphoma cells were washed with phosphate-buffered saline (PBS) for three times and suspended in RPMI 1640 medium at the concentration of 10×10^6 cells/mL 10^6 cells in 0.1 mL of the medium were implanted subcutaneously into each of the two flanks of inbred AKR mice with a ½-in, 28-gauge, 1-mL syringe. The mice were then randomly distributed into control and treatment groups with 5 mice/group.
Day 1-7: The desired dose of a test agent was dissolved in a minimum amount (<50 μL) of dimethylacetamide (DMA), followed by addition of Cremaphor_EL (polyethoxylated castor oil, <30 μL) with mixing. Saline was added to dilute the drug solution and the desired dose was delivered in a volume of 5×0.3 mL for one group of mice (5 mice per group). In this case, the final concentration of dimethylacetamide was less than 3.3% and that of the carrier less than 2%. Formulation of a test agent was carried out just before injection into the animals. The test agent was injected intraperitoneally into the treatment groups of mice twice a day following the flexible schedule as recommended in the literature (Corbett, T. H.; Valeriote, F. A; LoRusso, P.; Polin, L; et. al. In “Anticancer Drug Development Guide: Preclinical Screening, Clinical Trials, and Approval”, (Ed. Teicher, B. A.), Humana Press Inc., Totowa, N.J., 1997 p 75-99.) to reach the most tolerated drug dose.
as §2, §3
wherein a and b are tumor length and width (in mm), respectively. The usual T/C value was used to assess the in vivo anti-tumor activity. T refers to the total tumor weight of the treatment group (including zeros), whereas, C refers to the total tumor weight of the non-treatment control group (including zeros). According to the NCI (National Cancer Institute in USA) standard, a T/C value of 42% is considered significant anti-tumor activity.
Furthermore, two compounds cisplatin (cis-diaminedichloroplatinum(II)) and [Au(dppe)2]Cl (dppe: 1,2-bis(diphenylphosphino)ethane) with known anti-tumor activities were also included in the In vivo test Table 2 summarizes the anti-tumor activities of (Sp)-1 and (Rp)-1.

[4] = test system: P3HR-1 (B-cell lymphoma); assay: human suspension tumor cell line assay, P3HR-1; type: cell-based; conditions: 2 h exposure, cells counted after 5 days; read-out: cytotoxicity IC50, P3HR-1
Description: (§4) The human suspension tumor cell line assay determines the ability of a compound to inhibit the cells' ability to divide in vitro after a two hour exposure to the compound. The panel of human suspension tumor cell lines consist of Raji (B-cell lymphoma), Daudi (B-cell lymphoma), P3HR-1(B-cell lymphoma), and Molt-4 (T-cell leukemia). The cytotoxicity tests were carried out in vitro according to the following protocol:
(§5) Cryopreserved tumor cells were thawed and cultured in the media RPMI-1640 supplemented with 10% fetal calf serum (FCS) and 100 units/mL penicillin and 100 μg/mL streptomycin (“media R10”), in a 5% CO2 humidified incubator at 37° C. They were subcultured every three days in a 75 cm^2 tissue culture flask.
(§6) A hemocytometer with four 1×1×0.1 mm^3 cells was used to count the cell concentration of a specified cell suspension solution. Trypan Blue was used to determine the viability of the counted cells, as live cells can exclude the dye penetration.
(§7) Each of Raji, Daudi, P3HR-1 and Molt-4 cells were dispensed into 6-well petri plates with 30,000 cells per well and were labelled in groups of three. A drug solution with a specified concentration was freshly prepared by dilution of a gold complex solution (1 mM) in DMSO with the media R10. […] The number of cells in each well was counted and the average value of triplicate samples were determined for each drug concentration.

[5] = test system: Daudi (B-cell lymphoma); assay: human suspension tumor cell line assay, Daudi; type: cell-based; conditions: 2 h exposure, cells counted after 5 days; read-out: cytotoxicity IC50, Daudi
Description: as §4, §5, §6, §7

[6] = test system: Mahlavu (liver cancer); assay: cytotoxicity against human adherent tumor cell line Mahlavu; type: cell-based; conditions: four hours exposure, cells counted after 5 days
Description: In addition, cytotoxicities of (Sp)-1 and (Rp)-1 against a human adherent tumor cell line, Mahlavu (liver cancer), were also evaluated according to the following protocol:
Cryopreserved Mahlavu cells were thawed and cultured as a monolayer in the media M10 (Dulbecco's modified eagle's medium supplemented with 10% FCS and 100 units/mL penicillin and 100 μg/mL streptomycin) in a 75 cm^2 tissue culture flask. The flask was kept in a 5% CO2 humidified incubator at 37° C. Since the cells attached strongly to the bottom of culture flask, trypsin solution in PBS was used to detach the cells and then the Mahlavu cells were washed and counted as suspension cells.
10,000 cells were placed into each well of 6-well petri plates and incubated overnight to allow attachment to the plate. Triplicate samples of cells were allowed to react with the gold(I) complexes at three concentrations for four hours, followed by removal of the media. As before, a control with no drug treatment was included. The plates were then washed once with PBS(5 mL) and fresh media M10 (3 mL) was added. The plates were incubated at 37° C. in a CO2 incubator for 5 days. The Mahlavu cells In each well were trypsinized and counted as usual.
The IC50 values of (Sp)-I and (Rp)-I against this adherent tumor cell line were 6 and 8 μM, respectively. The IC50 values were determined as described above.

[7] = test system: Raji (B-cell lymphoma); assay: human suspension tumor cell line assay, Raji; type: cell-based; conditions: 2 h exposure, cells counted after 5 days; read-out: cytotoxicity IC50, Raji
Description: as §4, §5, §6, §7

[8] = test system: Molt-4 (T-cell leukemia); assay: human suspension tumor cell line assay, Molt-4; type: cell-based; conditions: 2 h exposure, cells counted after 5 days; read-out: cytotoxicity IC50, Molt-4
Description: as §4, §5, §6, §7

[9] = dose levels of 54 and 36 μmol/kg

Row | SMILES | T/C ([1]; dosage 24 μmol/kg) [%] | T/C ([1]; dosage 36 μmol/kg) [%] | T/C ([1]; dosage 54 μmol/kg) [%] | in vivo activity in words ([1]; dosage level of 24 μmol/kg) | in vivo activity in words [1, 9] | average ILS % (Increased Life Span) [2] [%] | anti-tumor activity against advanced K36 tumor model in words (FIG. 1) [2] | MTTD in advanced K36 model [2] [µmol/kg] | T/C (tumor weight treated/control x 100) [3] [%] | IC50 [4] [nM] | IC50 [5] [nM] | IC50 [6] [nM] | IC50 [7] [nM] | IC50 [8] [nM] | survival of one treated mouse after tumour implantation ([2]; one mouse) [days]
1 | CCOC(=O)C1C(P(c2ccccc2)c2ccccc2)C2C(C)=C(C)C1P2c1ccccc1.[Cl][Au].[Cl][Au] [(Rp)-I, μ-{(1α,4α,5α(S),6β(R),7R)-5-(diphenylphosphino)-2,3-dimethyl-6-(ethoxycarbonyl)-7-phenyl-7-phosphabicyclo[2.2.1]hept-2-ene-P5,P7}bis[chlorogold(I)]] | 38 | 14 | 6 | moderate activity | highly active | 31 | significant anti-tumor activities | 32 | 6 | 200 | 500 | 8000 | 300 | 1000 | 
2 | CCOC(=O)C1C(P(c2ccccc2)c2ccccc2)C2C(C)=C(C)C1P2c1ccccc1.[Cl][Au].[Cl][Au] [(Sp)-I, μ-{(1α,4α,5α(R),6β(S),7S)-5-(diphenylphosphino)-2,3-dimethyl-6-(ethoxycarbonyl)-7-phenyl-7-phosphabicyclo[2.2.1]hept-2-ene-P5,P7}bis[chlorogold(I)]] | 33 | 12 | 5 | moderate activity | highly active | 48 | significant anti-tumor activities | 32 | 5 | 500 | 800 | 6000 | 500 | 1000 | 48
3 | N.N.[Cl][Pt][Cl] [Cisplatin, cis-diaminedichloroplatinum(II), reference compound] |  |  |  |  |  |  | did not inhibit the growth of the advanced K36 lymphoma at all | 28 | 6 |  |  |  |  |  | 
4 | [Au+].[Cl-].c1ccc(P(CCP(c2ccccc2)c2ccccc2)c2ccccc2)cc1.c1ccc(P(CCP(c2ccccc2)c2ccccc2)c2ccccc2)cc1 [[Au(dppe)2]Cl, reference compound] |  |  |  |  |  |  |  |  | 12 |  |  |  |  |  | 

Source: US6774254B2, “Gold complexes” (National University of Singapore, priority 2000, dated 2004)
